The record followed here is US9433663B2, “Mobilization of hematopoietic stem cells” (Children's Hospital Medical Center, priority 2008, dated 2016).

For assay [1], the system named is human CD45^+ hematopoietic cells. The experiment in a line: mobilization of human CD45+ cells in NOD/SCID-hCB model. In kind it is in vivo, NOD/SCID mice xenografted with human CD34^+ hCB cells. Conditions: intravenous injection, by 20 min post administration. The method, then: To begin to study potential utility of CASIN in human hematopoietic stem cell mobilization, a series of cellular assays were carried out to determine the effects on human CD34^+ umbilical cord blood cells (HCBs). […] The effects of CASIN on human hematopoietic cell mobilization was therefore tested using a well established preclinical in vivo model (NOD/SCID-Hcb) of human hematopoietic function, where fresh CD34^+ hCB cells were transplanted into sub-lethally irradiated NOD/SCIDs by intrafemoral injection, and repopulated and maintained human hematopoietic reconstitution in the bone marrow of NOD/SCID recipient mice (FIG. 9b, FIG. 11) (Larochelle, A. et al. Nat Med 2, 1329-1337 (1996); Bhatia, M., et al. Proc Natl Acad Sci USA 94, 5320-5325 (1997)). Intravenous injections of CASIN were applied when human cells were well engrafted in the NOD/SCID recipients.
C57BL/6, NOD/SCID, NOD/SCID-SGM3 and NOD/SCIDγC−/− (NOG) were in house bred in the animal barrier facility of Cincinnati Children's Hospital Medical Center (CCHMC) and used at the age of 6-8 weeks old. Cultured N-RasMA93 cells were injected into NOD/SCIDγC−/− mice by tail vein. Freshly thawed CD34^+ hCB cells were transplanted into NOD/SCID mice by intrafemoral injection.
Background: In xenograft studies the graft and the host belong to different species.

In assay [2] the test system is C57Bl/6, C3H/HeJ and DBA/2 mice. Nature of the assay: Example 7 HPC mobilization in comparison and combination with G-CSF. Conditions: mouse, in vivo. On the procedure: Broad interindividual variability exists in mobilization of HSC/Ps in different strains of mice and man. In some patients, G-CSF is a poor mobilizer. Therefore, the mobilizing capability of CASIN in comparison with G-CSF is evaluated, and in combination with G-CSF, in strains of mice that were reported to differ in responsiveness to G-CSF. Besides C57Bl/6, included in this set of experiments are C3H/HeJ and DBA/2 mice which respond very well to the mobilizing effects of G-CSF compared with C57Bl/6 mice. For each strain of mice, four groups are divided according to regimens used for mobilization: (1) Control medium; (2) CASIN administration; (3)G-CSF: twice a day for 2 days (4) G-CSF plus CASIN administration. Mice are bled 18 h after the last injection, and blood is plated in triplicate for CFU-C assay. Numbers of HPCs in CFU-E, BFU-E, CFU-GM, and CFU-GEMM are calculated per ml of blood later on reflecting the mobilization capacity of different regimens on HPCs.

In the case of `OCCNC1CCCc2c1[nH]c1ccc(-c3ccccc3)cc21` (centres unmarked) [CASIN], the “human CD45^+ hematopoietic cells mobilized to the peripheral blood” value in assay [1] was “significant amount of human CD45^+ hematopoietic cells mobilized to the peripheral blood”. Also, the “mobilization in comparison and in combination with G-CSF” value in assay [2] is listed as “more effective mobilization than G-CSF”.
